≈ marks a conversion by molar mass, not a printed value.
Legend:
[1] = test system: Candida glabrata ATCC 90030; assay: Fungal growth inhibition, C. glabrata ATCC 90030; type: cell-based; details: Nakaseomyces glabratus, ATCC90030; MIC defined as 50% growth inhibition, 24 h, n = 3–6
From the text: (§1) Fungal isolates were purchased from American Type Culture Collection, except for C. glabrata strain Cg003, which was kindly provided by Julius Subik, Comenius University in Bratislava, Slovak Republic. Cg003 is a clinical isolate, characterized to be resistant to fluconazole and itraconazole due to overexpression of the multidrug resistance efflux pumps Cdr1p and Cdr2p. Saccharomyces cerevisiae (ATCC 9763), Candida albicans (ATCC 90028), Candida albicans (SC5314), Candida glabrata (ATCC 90030), Candida glabrata (Cg003) and Candida krusei (ATCC 6258) were grown in Sabouraud broth (40 g/L D-glucose, 10 g/L peptone, pH 5.6) or YPD (10 g/L yeast extract, 20 g/L Bacto-peptone, 20 g/L glucose) medium to mid log phase, aliquoted into 20% (v/v) glycerol and cryopreserved as stocks at -80°C. For each growth assay, cells from these stocks were diluted in sterile water to OD600 = 0.025, which corresponds to a final starting inoculum of 0.5–2.5 x 10^5 CFU/mL. Growth assays were carried out by pipetting 3 μL compound dissolved in DMSO, 100 μL cell suspension and 97 μL 2 x RPMI media (20.8 g/L RPMI-1640 (Sigma-Aldrich catalog number R6504) 330 mM MOPS, 36 g/L glucose) into a microtiter plate and incubating for 24 h at 34°C, followed by OD measurement at 490 nm. The minimum inhibitory concentration (MIC) was defined as 50% growth inhibition of the microorganism as this measurement best represented the antifungal activity of the compounds. Standard errors were typically below 5%.

[2] = test system: S. cerevisiae cells; assay: Membrane potential study (DiBAC4(3)); type: cell-based, Saccharomyces cerevisiae; details: 10 μM, 30 minutes exposure, compared to DMSO
Protocol: S. cerevisiae cells were grown to mid-log phase, pelleted at 2,000 x g for 2 minutes and washed twice in buffer A (100 mM MOPS and 1 mM KCl adjusted with Trizma base to pH 7.0). Cells were then resuspended in buffer A to an OD600 of 0.2. For each well 50 μL of buffer A with 3.3 μg/mL propidium iodide (PI) (Thermo Fisher Scientific, catalog number P1304MP) and 1 μg/mL DiBAC4(3) (Sigma-Aldrich, catalog number D8189)) was mixed with 50 μL S. cerevisiae cell suspension and transferred to a 96 well plate containing 1 μL of inhibitor (in DMSO). A lysis control was performed with Reagent Y100 (ChemoMetec). Five thousand cells were measured per experiment with an exposure time of 1000 ms using a NucleoCounter NC-3000 (ChemoMetec). Dark field was used as the masking channel to select the yeast cells, and the DiBAC4(3) ([…]) and PI (ex 630 nm, em 740/60 nm) channels were used to measure the membrane potential and membrane integrity, respectively. Only cells with a pixel size of 10–40 were included in the analysis, to avoid analysis of non-cell artifacts.

[3] = test system: yeasts Saccharomyces cerevisiae, Candida albicans, Candida krusei and Candida glabrata; assay: Fungal growth inhibition; type: cell-based; details: species not given; for MIC: antifungal activity
From the text: as §1

[4] = test system: C. albicans (SC5314) cells; assay: Time-kill assay; type: cell-based, Candida albicans; details: for Reduction in CFU after 3 h exposure: 20 μM, compared to DMSO treated controls; for Fungicidal or fungistatic activity in time-kill (in words): AMB 0.54 μM, VRC 2.8 μM, 6 and 8 20 μM
Protocol: C. albicans (SC5314) cells (1 x 10^5 CFU/mL) were incubated in 10 mL RPMI-1640 media at 30°C with gentle agitation (150 rpm) in the presence of amphotericin B (0.5 μM), voriconazole (2.8 μM) or tetrahydrocarbazole compound (20 μM). At the indicated time points (0, 3, 6, and 24 h), a 100 μL aliquot was removed, serially diluted (10 fold) in saline (0.9% NaCl), and 30 μL aliquots were spread on YPD agar. CFU were counted after incubation at 30°C for 48 h. C. albicans cells treated with DMSO (1%, v/v) served as a control. 50 CFU/mL was selected as the lower limit of quantitation.

[5] = test system: C. albicans cells; assay: Post-antifungal effect determination; type: cell-based, Candida albicans; details: 1 h exposure of C. albicans; AMB 0.54 μM, VRC 2.8 μM, 6 and 8 20 μM
Protocol: The post-antifungal effect (PAFE) of antifungal drugs on C. albicans was determined as described by others, with modifications. Briefly, 2 × 10^6 CFU/mL C. albicans cells were incubated in 1 mL RPMI-1640 media for 1 h at 30°C with gentle agitation in the presence of amphotericin B (0.54 μM), voriconazole (2.8 μM) or tetrahydrocarbazole compound (20 μM). Cells were subsequently washed in RPMI media 3 times by centrifugation (3 minutes, 5,000 x g) and finally re-suspended in 1 mL fresh RPMI medium and incubated at 30°C for 24 h. At various time intervals, a 100 μL aliquot was removed, serially diluted (10-fold) in saline (0.9% NaCl), and 30 μL aliquots were spread on YPD agar. The agar plates were incubated at 30°C for 48 h and the number of CFU/mL of culture was determined. C. albicans cells treated with DMSO (1%, v/v) served as a control. The number of CFU/mL obtained at specified time intervals was plotted against time (h) following compound removal. An increase in the CFU/mL of culture signifies growth and multiplication of yeast cells. The duration required for the antifungal drug-treated cells to recover from the inhibitory effect of the drug as indicated by an increase in CFU/mL of culture is defined as the PAFE.

SMILES | MIC [1] | DiBAC4(3) fluorescence signal, membrane depolarization (in words) [2] | further results
NC1CCCc2c1[nH]c1cc(OC(F)(F)F)ccc21 (stereo not shown) [Compound 4] | 23.7 µM (≈ 6.41 µg/mL) | No significant differences | Antifungal activity (in words) [3]: weak antifungal activity
CN1CCC(NC2CCCc3c2[nH]c2cc(OC(F)(F)F)ccc32)CC1 (stereo not shown) [Compound 5] | 46.5 ± 27 µM (≈ 17.1 µg/mL) | No significant differences | Antifungal activity (in words) [3]: weak antifungal activity
FC(F)(F)Oc1ccc2c3c([nH]c2c1)C(NCc1ccc(Cl)cc1)CCC3 (stereo not shown) [Compound 6] | 12.1 ± 7.9 µM (≈ 4.78 µg/mL) |  | Reduction in CFU after 3 h exposure [4]: > 99%; Fungicidal or fungistatic activity in time-kill (in words) [4]: fungistatic activity after 24 h of incubation; Post-antifungal effect (PAFE) [5]: 5 h
FC(F)(F)Oc1ccc2c3c([nH]c2c1)C(NCc1ccc(Br)cc1)CCC3 (stereo not shown) [Compound 7] | 15 µM (≈ 6.59 µg/mL) |  | 
FC(F)(F)Oc1ccc2c3c([nH]c2c1)C(NCCOc1ccc(Cl)cc1)CCC3 (stereo not shown) [Compound 8] | 5.3 ± 2.7 µM (≈ 2.25 µg/mL) |  | Reduction in CFU after 3 h exposure [4]: > 99%; Fungicidal or fungistatic activity in time-kill (in words) [4]: fungistatic activity after 24 h of incubation; Post-antifungal effect (PAFE) [5]: 5 h
FC(F)(F)Oc1ccc2[nH]c3c(c2c1)CCCC3NCc1ccc(-c2ccccn2)cc1 (stereo not shown) [Compound 9] | 7.5 µM (≈ 3.28 µg/mL) |  | 
Clc1ccc2[nH]c3c(c2c1)CCCC3NCc1ccc(-c2ccccc2)cc1 (stereo not shown) [Compound 10] | 21 ± 6.6 µM (≈ 8.13 µg/mL) | slight increase | 
Cn1c2c(c3cc(Cl)ccc31)CCCC2NCc1ccc(-c2ccccc2)cc1 (stereo not shown) [Compound 11] | > 20 µM |  | MIC [3]: > 20 µM
CN(Cc1ccc(-c2ccccc2)cc1)C1CCCc2c1[nH]c1ccc(Cl)cc21 (stereo not shown) [Compound 12] | > 20 µM |  | MIC [3]: > 20 µM

Source: article PMC5749684, “Tetrahydrocarbazoles are a novel class of potent P-type ATPase inhibitors with antifungal activity” (PLoS ONE, 2018)
